# US20130189248A1, “EGFR INHIBITOR AND ANTIVIRAL AGENT FOR SIMULTANEOUS, SEPARATE OR SEQUENTIAL USE IN THE TREATMENT AND/OR PREVENTION AND/OR PALLIATION OF CANCER” (priority 2010, published 2013)
# Like-named read-outs stand apart in the source and are kept apart here.
# Legend:
# [1] = system: herpesvirus polymerases; settings: cited from earlier work
# [2] = system: Me180 cells (human HPV-positive cervical carcinoma cells); assay: Clonogenicity test on Me180 cells (with Bliss additivity model); type: cell-based
# Procedure: (§1) The cell lines are available from the American Type Culture Collection (ATCC): • HeLa cells (human HPV-positive cervical carcinoma cells): ATCC n° CCL-2; • Me180 cells (human HPV-positive cervical carcinoma cells): ATCC n° HTB-33; • C33A cells (human HPV-negative cervical carcinoma cells): ATCC n° HTB-31. • H460 cells (human HPV-negative lung carcinoma cells): ATCC n° HTB-177.
# Me180 cells were grown in the GIBCO® McCoy's 5A medium (available from Invitrogen under catalog reference number 26600023), supplemented with 10% FCS, 1% penicillin/streptomycin and 1% glutamine.
# (§2) The cell lines were grown in humid incubators at 37° C. under 5% CO2.
# (§3) Each of said treatments last the 10-15 days of the clonogenic assay.
# (§4) The culture medium has not been replaced during the assay.
# (§5) The cultures were stopped by fixing and staining with crystal violet (methanol 80%, formaldehyde 10%, crystal violet 1.25 g), when the clones reached 50 cells. The clones were then counted and related to the number of cells cultured to obtain the fraction of surviving cells.
# (§6) The Bliss additivity model was used to classify the effect of the drug combination as synergistic, additive or antagonist.
# (§7) A theoretical curve of the expected effect of the combination was calculated from the equation:
# (§8) Bliss effect=effect A+effect B−effect A×effect B,
# (§9) where effect A and effect B are the effects of drugs A and B alone at specific concentrations.
# (§10) Here, the Bliss effect is the expected effect when the combination of the two drugs is exactly additive. If the observed effect (the experimentally measured effect of the combination) is lower than the Bliss effect, the effect of the combination is said to be antagonist (delta=observed effect−Bliss effect is a negative value). If the observed effect is greater than the Bliss effect, the effect of the combination is synergistic (delta is positive).
# (§11) The data are expressed as a percentage decrease in cell viability beyond that which would be expected if the association were strictly additive.
# [3] = system: HeLa xenograft; assay: HeLa xenograft in female nude mice; type: in vivo; settings: cidofovir i.p. days 1-5, cetuximab i.p. 1 mg/mouse days 1, 4, 7, alone or combined
# Procedure: Unless otherwise indicated, materials and methods are those described in example 1 above. The in vivo experiments were carried out at the Institut Gustave Roussy (94805 Villejuif; France), with the approval of the French Ministry of Agriculture.
# 10- to 12-week old female nude mice were injected subcutaneously (into the flank) with 2×10^6 live HeLa cells suspended in 100 μL of culture medium without Fetal Calf Serum (FCS) to study tumor growth. […] Tumor volume and weight were monitored twice a week. The mice were sacrificed when the tumor reached ten times the initial volume.
# [4] = system: HeLa cells (human HPV-positive cervical carcinoma cells); assay: Clonogenicity test on HeLa cells (with Bliss additivity model); type: cell-based
# Procedure: as §1
# The HeLa cells contained 10-50 copies of integrated HPV18.
# as §2, §3, §4, §5, §6, §7, §8, §9, §10, §11
# [5] = system: Me180 xenograft; assay: Me180 xenograft in mice; type: in vivo; settings: cidofovir, cetuximab alone or combined
# [6] = cidofovir 3 mg/kg, AIDS patients with CMV retinitis, after 1 hour of infusion; cited from earlier work
# [7] = system: H460 cells (human HPV-negative lung carcinoma cells); assay: Clonogenicity test on H460 cells; type: cell-based; settings: H460 (printed H480); cidofovir alone (10 μg/mL, FIG. 4A)
# Procedure: as §1, §2, §3, §4, §5
# [8] = system: C33A cells (human HPV-negative cervical carcinoma cells); type: cell-based
# Procedure: as §1, §2, §3, §4, §5, §6, §7, §8, §9, §10, §11
# [9] = system: viral DNA polymerase; settings: cited from earlier work
# [10] = human, in vivo; cited from earlier work
# [11] = foscarnet sodium alone 200 μM/mL, listed as Foscarnet
# [12] = foscarnet sodium alone 200 μM/mL, listed as Foscarnet sodium
# [13] = erlotinib alone 0.1 μM/mL, listed as Erlotinib
molecule,measurement,setting,value
Cidofovir diphosphate,fold lower concentration needed to inhibit herpesvirus polymerases than human cellular DNA polymerases,[1],8- to 600 fold
"Nc1ccn(C[C@@H](CO)OCP(=O)(O)O)c(=O)n1 [cidofovir, 1-[(S)-3-hydroxy-2-(phophonomethoxy)propyl]cytosine dehydrate]",concentration at which the drug alone had an effect on the cells,[2]; cidofovir alone,at least 1 μg/mL
same,reduction in cell survival (clonogenicity) compared to the control,[2]; cidofovir alone 1 μg/mL,about 30%
same,reduction in clonogenicity compared to the control / Decrease in living cells (%),[2]; cidofovir alone 5 μg/mL,40%
same,tumor growth (tumor volume) compared to the control group,[3],does not reduce tumor growth
same,concentration at which the drug alone had an effect on clonogenicity,[4]; cidofovir alone,at least 5 μg/mL
same,reduction in clonogenicity compared to the control / Decrease in living cells (%),[4]; cidofovir alone 5 μg/mL,15%
same,reduction in clonogenicity compared to the control,[4]; cidofovir alone 10 μg/mL,25%
same,clonogenic survival,[4]; cidofovir alone at 1 μg/mL,about 100%
same,tumor growth compared to the control group,[5],does not reduce tumor growth
same,plasmatic concentration,[6],7.6 ± 1.4 µg/mL
same,effect on cell survival,[7],no significant effect
same,reduction in cell survival compared to the control,[8]; cidofovir alone 1 μg/mL,about 20%
same,reduction in cell survival / clonogenicity compared to the control / Decrease in living cells (%),[8]; cidofovir alone 5 μg/mL,minus 20%
"O=C(O)P(=O)(O)O [foscarnet, phosphonoformic acid]",reduction in clonogenicity compared to the control / Decrease in living cells (%),[2]; [11],minus 35%
same,reduction in clonogenicity compared to the control / Decrease in living cells (%),[2]; [12],35%
same,reduction in clonogenicity compared to the control / Decrease in living cells (%),[4]; [11],minus 20%
same,reduction in clonogenicity compared to the control / Decrease in living cells (%),[4]; [12],20%
same,reduction in clonogenicity compared to the control / Decrease in living cells (%),[8]; [11],minus 20%
same,reduction in clonogenicity compared to the control / Decrease in living cells (%),[8]; [12],20%
"C#Cc1cccc(Nc2ncnc3cc(OCCOC)c(OCCOC)cc23)c1 [erlotinib, N-(3-ethynylphenyl)-6,7-bis(2-methoxyethoxy)-4-quinazolinamine]",reduction in clonogenicity compared to the control / Decrease in living cells (%),[2]; erlotinib alone 0.1 μM/mL,minus 50%
same,reduction in clonogenicity compared to the control / Decrease in living cells (%),[2]; [13],50%
same,reduction in clonogenicity compared to the control / Decrease in living cells (%),[2]; erlotinib alone 0.5 μM/mL,minus 80%
same,reduction in clonogenicity compared to the control / Decrease in living cells (%),"[2]; erlotinib alone 0.5 μM/mL, listed as Erlotinib",80%
same,reduction in clonogenicity compared to the control / Decrease in living cells (%),[4]; erlotinib alone 0.1 μM/mL,minus 50%
same,reduction in clonogenicity compared to the control / Decrease in living cells (%),[4]; [13],50%
same,reduction in clonogenicity compared to the control / Decrease in living cells (%),[8]; erlotinib alone 0.1 μM/mL,minus 10%
same,reduction in clonogenicity compared to the control / Decrease in living cells (%),[8]; [13],10%
"Nc1nc2c(ncn2COCCOP(=O)(O)OP(=O)(O)OP(=O)(O)O)c(=O)[nH]1 [Acyclo-GTP, acyclo-guanosine triphosphate]",times greater affinity for viral than cellular polymerase,[9],approximately 100 times
"Vectibix®: recombinant, fully human IgG2 kappa monoclonal antibody that binds specifically to the human EGFR",incidence of NCI-CTC grade 3-5 adverse reactions,[10],87%
same,patients with dermatologic toxicities,[10],89%
same,patients with severe dermatologic toxicities (NCI-CTC grade 3 and higher),[10],12%
